In patent US8957192B2, “Human cytotoxic T-lymphocyte epitope and its agonist epitope from the non-variable number of tandem repeat sequence of MUC-1” (The United States of America, as represented by the …, priority 2003, dated 2015):
Values joined by “and” are separate entries in the source; they are usually repeats but may differ in a detail not shown here. Identical values can stand only once.

Experiments:
[1] = molecular target: HLA-A2 molecule (Homo sapiens, UniProt P04439, I166T/I218V/L300P/L318F/N151K/N90K/P208A/P217A/Q86G/Q94H/R138H/R169H/T345S); experiment: T2 cell binding assay: peptide binding to HLA-A2 by flow cytometry
Procedure: In this assay, increased stability (accumulation) of HLA-A2 molecules on the surface of T2 cells as a consequence of peptide binding is measured by increased binding of antibody directed against HLA-A2 molecule. Briefly, 1×10^6 cells in serum-free Iscove's modified Dulbecco's complete medium were incubated with peptides at a concentration of 50 μg/ml in 24-well culture plates at 37° C. in 5% CO2. Flow cytometry for peptide binding was performed using T2 cells and single-color analysis. After cells were washed three times in DPBS, as described above, they were incubated for 1 h with a 1:100 dilution of HLA-A2-specific MAb (One Lambda, Inc.) per 10^6 cells. UPC-10 (Cappel/Organon Teknika) was used as isotype control. The cells were then washed three times and incubated with 1:100 dilution of FITC-labeled anti-mouse IgG (BD Biosciences). Analysis was conducted with the FACScan, as described above. Cells were maintained on ice during all cell preparation and staining.
The primary amino acid sequence of human MUC-1 was analyzed for consensus motifs for novel HLA-A2 binding peptides. […] The CEA CAP1-6D peptide and a NCA peptide were used as a positive and negative control, respectively.

[2] = tested on: T-1191-MUC-1 cells; experiment: IFN-γ production (ELISA) by T-1191-MUC-1 cells stimulated with peptide-pulsed autologous B cells; format: cell-based, human; settings: for Production of IFN-γ, with peptide: T-1191-MUC-1 at IVS-3, autologous EBV-B cells pulsed 25 μg/ml, effector-to-APC 1:3, 24 h
Procedure: (§1) Supernatants of T cells exposed for 24 h to peptide-pulsed autologous EBV-transformed B cells, in IL-2-free medium at various peptide concentrations, were screened for secretion of IFN-γ using an ELISA kit (R & D Systems, Minneapolis, Minn.). The results were expressed in pg/ml. A CBA system (BD PharMingen, San Diego, Calif.) was also used to determine the secretion of multiple cytokines by specific T cells. The CBA system uses the fluorescence detection by flow cytometry to measure soluble analyses in a particles-based immunoassay. The BD human Th1/Th2 cytokine CBA Kit was used to measure IL-2, IL-4, IL-5, IL-10, TNF-α protein levels in a single sample. The cytokine capture beads were mixed with PE-conjugated detection antibodies and then incubated with recombinant cytokine standards or test samples to form sandwich complexes. The sample results were generated in graphic and tabular format, using BD PharMingen CBA analysis software. The results were expressed in pg/ml.
The specificity of the MUC-1-specific T cells generated (designated T-1191-MUC-1) was analyzed after IVS cycle 3 (see Materials and Methods) for their ability to release IFN-γ after stimulation with autologous B cells pulsed with each of the MUC-1 peptides listed in Table 1.

[3] = tested on: MUC-1-specific T-cell lines T-23-P-92, T-23-P-93L, T-18-P-92, T-18-P-93L; experiment: IFN-γ production by T-cell lines from two pancreatic cancer subjects stimulated with peptide-pulsed DCs; format: cell-based, human; settings: IVS-4; allogeneic DCs pulsed 25 μg/ml; effector-to-APC 10:1; 24 h
[4] = tested on: CEA-specific T cells (V8T); format: cell-based, human; settings: 24 h
[5] = tested on: MUC-1-specific T cells (T-1191-P93L); format: cell-based, human; settings: 24 h
[6] = tested on: T-cell lines T-rV, T-rF, T-rF(CEA), T-rF(MUC); format: cell-based, human; settings: 24 h
[7] = tested on: T-cell lines T-55, T-49, T-41; experiment: IFN-γ production by T-cell lines from cancer patients established with rF-CEA/MUC/TRICOM-infected DCs; format: cell-based, human; settings: autologous DCs as APC; peptides 25 μg/ml; effector-to-APC 10:1; 24 h
[8] = tested on: T-1191-MUC-1 cells; experiment: CBA assay for production of cytokines by MUC-1 peptide-stimulated T cells; format: cell-based, human; settings: peptide 25 μg/ml; effector-to-APC 1:3; 24 h
Procedure: as §1
The ability of the P-93L and P-93I agonist peptides at various peptide concentrations, to activate the T-1191-MUC-1 cells, was compared. […] The P-93L agonist peptide was thus chosen for further study. The cytokine profile of T-1191-MUC-1 cells stimulated with APCs pulsed with either the P-92 or the P-93L peptide was then analyzed. A CBA assay was used for the analysis. […] No TNF-α could be detected in the supernatants at the 24-h time point.

[9] = molecular target: peptide-HLA-A2 complexes (Homo sapiens, UniProt P04439, D140Y/D185E/D98H/E176V/E277Q/G131W/G231S/I119V/I121R/I166T/I218V/L300P/L318F/N151K/N90K/P208A/P217A/Q86G/Q94H/R138H/R169H/T345S); experiment: Stability of peptide-HLA-A2 complex on T2 cells (brefeldin-A); format: binding; settings: 50 μg/ml overnight, 8-hour observation
Procedure: FIG. 2 is a graph showing the comparison of the stability of the complex of the P-92, P-93L or P-93I peptide with HLA-A2. T2 cells were incubated overnight with P-92 (open square), P-93L (closed square) or P-93I (closed triangle) peptide at a concentration of 50 μg/ml and then washed free of unbound peptide and incubated with brefeldin-A to block delivery of new class I molecules to the cell surface. At the indicated times, cells were stained for the presence of surface peptide-HLA-A2 complexes. Results are expressed in relative percentage of binding compared with 100% at time 0.
The stability of the peptide-MHC complex for peptides P-92 (native), P-93L and P-93I, was examined. Peptides were incubated with T2 cells overnight, the unbound peptides were washed off, and then incubated with brefeldin-A to block delivery of new class I molecules to the cell surface; at various time points cells were analyzed for the presence of peptide-HLA-A2 complexes.

[10] = molecular target: HLA-A2 molecule (Homo sapiens, UniProt P04439, D140Y/D185E/D98H/E176V/E277Q/G131W/G231S/I119V/I121R/I166T/I218V/L300P/L318F/N151K/N90K/P208A/P217A/Q86G/Q94H/R138H/R169H/T345S); experiment: T2 cell binding assay: peptide binding to HLA-A2 by flow cytometry; settings: peptides 0-50 μg/ml; MFI
[11] = Table 1, T2 cells, peptide 50 μg/ml

Sequence: TISDVSVSDV [Peptide P-1135]
- T2 binding [1, 11]: 422 relative fluorescence
- Production of IFN-γ, with peptide [2]: 347.2 pg/mL

Sequence: GTQSPFFLLL [Peptide P-4]
- T2 binding [1, 11]: 467 relative fluorescence
- Production of IFN-γ, with peptide [2]: 260.0 pg/mL

Sequence: YLSGADLNL [CAP1-6D, reference compound]
- IFN-γ produced by T-18-P-92 [3]: <26 pg
- IFN-γ produced by T-18-P-93L [3]: <26 pg
- IFN-γ produced by T-23-P-92 [3]: <26 pg
- IFN-γ produced by T-23-P-93L [3]: <26 pg
- IFN-γ, CEA-specific CTL [4]: 772 pg/mL and 820 pg/mL
- IFN-γ, MUC-1-specific CTL [5]: <15 pg/mL
- Production of IFN-γ by T-rF [6]: 550.0 pg/mL
- Production of IFN-γ by T-rF(CEA) [6]: 729.2 pg/mL
- Production of IFN-γ by T-rF(MUC) [6]: <15.6 pg/mL
- Production of IFN-γ by T-rV [6]: 976.3 pg/mL
- IFN-γ secretion by T-41 [7]: 933.4 pg/mL
- IFN-γ secretion by T-49 [7]: 974.2 pg/mL
- IFN-γ secretion by T-55 [7]: >1,000 pg/ml

Sequence: ALLVLVCVLV [Peptide P-1162]
- T2 binding [1, 11]: 431 relative fluorescence
- Production of IFN-γ, with peptide [2]: <52.3 pg/mL

Sequence: LIALAVCQC (YLIALAVCQC) [Peptide P-1177]
- T2 binding [1, 11]: 338 relative fluorescence
- Production of IFN-γ, with peptide [2]: <52.3 pg/mL

Sequence: LQRDISEMFL [Peptide P-1069]
- T2 binding [1, 11]: 433 relative fluorescence
- Production of IFN-γ, with peptide [2]: 288.0 pg/mL

Sequence: VISNDVCAQV [PSA peptide, prostate-specific antigen (PSA) peptide, control]
- IFN-γ secretion by T-41 [7]: <15.6 pg/mL
- IFN-γ secretion by T-49 [7]: <15.6 pg/mL
- IFN-γ secretion by T-55 [7]: <15.6 pg/mL

Sequence: AMWGQDVTSL [M-93/L-101]
- T2 binding ([1]; Table 4, P-92 analogues): 325 relative fluorescence values

Sequence: AMWGQDVTSV [Peptide M-93]
- T2 binding ([1]; Table 4, P-92 analogues): 723 relative fluorescence values

Sequence: ALAIVYLIAL [Peptide P-1172]
- T2 binding [1, 11]: 372 relative fluorescence
- Production of IFN-γ, with peptide [2]: <52.3 pg/mL

Sequence: REGTINVHDV [Peptide P-1108]
- T2 binding [1, 11]: 482 relative fluorescence
- Production of IFN-γ, with peptide [2]: <52.3 pg/mL

Sequence: VLVALAIVYL [Peptide P-1169]
- T2 binding [1, 11]: 369 relative fluorescence
- Production of IFN-γ, with peptide [2]: <52.3 pg/mL

Sequence: ALWGQDVTSL [L-93/L-101]
- T2 binding ([1]; Table 4, P-92 analogues): 736 relative fluorescence values

Sequence: ALWGQDVTSV [Peptide P-93L, MUC-1 agonist peptide]
- T2 binding ([1]; Table 4, P-92 analogues): 821 relative fluorescence values
- IFN-γ production by T-1191-MUC-1 cells at various peptide concentrations (FIG. 3) ([2]; peptides 0-6.25 μg/ml): greatest level of IFN-γ production
- IFN-γ [8]: 650 pg/ml/10^6 cell/ml
- IL-2 [8]: 366.9 pg/ml/10^6 cell/ml
- IL-4 [8]: <20 pg/ml/10^6 cell/ml
- IL-5 [8]: 140.9 pg/ml/10^6 cell/ml
- IL-10 [8]: <20 pg/ml/10^6 cell/ml
- TNF-α [8]: <20 pg/ml/10^6 cell/ml
- stability of the peptide-HLA-A2 complex (FIG. 2) [9]: more stable than P-92-HLA-A2 complexes
- IFN-γ produced by T-18-P-92 [3]: 366.6 pg
- IFN-γ produced by T-18-P-93L [3]: 524.1 pg
- IFN-γ produced by T-23-P-92 [3]: 644.5 pg
- IFN-γ produced by T-23-P-93L [3]: 973.0 pg
- IFN-γ, CEA-specific CTL [4]: <15 pg/mL
- IFN-γ, MUC-1-specific CTL [5]: 458 pg/mL and 550 pg/mL
- Production of IFN-γ by T-rF [6]: 446.0 pg/mL
- Production of IFN-γ by T-rF(CEA) [6]: <15.6 pg/mL
- Production of IFN-γ by T-rF(MUC) [6]: 626.8 pg/mL
- Production of IFN-γ by T-rV [6]: 514.0 pg/mL
- IFN-γ secretion by T-41 [7]: 745.0 pg/mL
- IFN-γ secretion by T-49 [7]: 819.0 pg/mL
- IFN-γ secretion by T-55 [7]: 985.8 pg/mL
- binding to HLA-A2 at various peptide concentrations (FIG. 1) [10]: higher levels than P-92 at all peptide concentrations

Sequence: AIWGQDVTSV [Peptide P-93I]
- T2 binding ([1]; Table 4, P-92 analogues): 823 relative fluorescence values
- stability of the peptide-HLA-A2 complex (FIG. 2) [9]: more stable than P-92-HLA-A2 complexes
- binding to HLA-A2 at various peptide concentrations (FIG. 1) [10]: higher levels than P-92 at all peptide concentrations

Sequence: YRPGENLNL [NCA, NCA peptide used as a negative control, reference compound]
- T2 binding [1, 11]: 365 relative fluorescence

Sequence: TLASHSTKTD [Peptide P-1104]
- T2 binding [1, 11]: 442 relative fluorescence
- Production of IFN-γ, with peptide [2]: 305.6 pg/mL

Sequence: WGQDVTSVPV [Peptide P-94]
- T2 binding [1, 11]: 591 relative fluorescence
- Production of IFN-γ, with peptide [2]: 323.6 pg/mL

Sequence: ATWGQDVTSV [Peptide P-92]
- T2 binding [1, 11]: 740 relative fluorescence
- T2 binding ([1]; Table 4, P-92 analogues): 510 relative fluorescence values
- Production of IFN-γ, with peptide [2]: 380.8 pg/mL
- IFN-γ [8]: 266 pg/ml/10^6 cell/ml
- IL-2 [8]: 58.8 pg/ml/10^6 cell/ml
- IL-4 [8]: <20 pg/ml/10^6 cell/ml
- IL-5 [8]: <20 pg/ml/10^6 cell/ml
- IL-10 [8]: <20 pg/ml/10^6 cell/ml
- TNF-α [8]: <20 pg/ml/10^6 cell/ml
- IFN-γ produced by T-18-P-92 [3]: 168.0 pg
- IFN-γ produced by T-18-P-93L [3]: 378.2 pg
- IFN-γ produced by T-23-P-92 [3]: 299.8 pg
- IFN-γ produced by T-23-P-93L [3]: 400.5 pg

Sequence: LAFREGTINV [Peptide P-1105]
- T2 binding [1, 11]: 461 relative fluorescence
- Production of IFN-γ, with peptide [2]: <52.3 pg/mL

Sequence: AIWGQDVTSL [I-93/L-101]
- T2 binding ([1]; Table 4, P-92 analogues): 280 relative fluorescence values
